Test results from US20230406840A1, “N-(2-(3-CYANO-2-AZABICYCLO[3.1.0]HEXAN-2-YL)-2-OXOETHYL)QUINOLINE-4-CARBOXAMIDES” (AstraZeneca AB, priority 2022, published 2023).

Target: human dipeptidylpeptidase 8 (hDPP8) (Homo sapiens (Human), UniProt Q6V1X1)
Assay: hDPP8 inhibition assay
Format: biochemical
Details: single concentration 10 μM; n = 1
Description: Compounds were tested in a biochemical inhibition assay using human dipeptidylpeptidase 8 (hDPP8) enzyme (BPS Bioscience, #80800) and the substrate Gly-Pro-amino-methylcoumarin (Enzo #BML-P189-0005) at 10 μM FAC. The enzymatic reactions were conducted in duplicate at rt for 20 min in 50 μL assay buffer (50 mM Tris, pH 7.5, 0.1% BSA). Compound solutions (in DMSO), were prepared in assay buffer ten-fold higher than the final concentration, and 5 μL of the dilution was added to a 50 μL reaction so that the compound concentration was 10 μM FAC and the concentration of DMSO was 1% in all wells. The plates were read on a PHERAstarPLUS (BMG) using kinetic mode with excitation 340 nm and emission 460 nm. Data were analyzed in Graph Pad Prism. Raw data signals were normalized using 1% DMSO as 0% control and no enzyme as 100% inhibitor control.

human dipeptidylpeptidase 8 (hDPP8), sequence (Q6V1X1 whole entry): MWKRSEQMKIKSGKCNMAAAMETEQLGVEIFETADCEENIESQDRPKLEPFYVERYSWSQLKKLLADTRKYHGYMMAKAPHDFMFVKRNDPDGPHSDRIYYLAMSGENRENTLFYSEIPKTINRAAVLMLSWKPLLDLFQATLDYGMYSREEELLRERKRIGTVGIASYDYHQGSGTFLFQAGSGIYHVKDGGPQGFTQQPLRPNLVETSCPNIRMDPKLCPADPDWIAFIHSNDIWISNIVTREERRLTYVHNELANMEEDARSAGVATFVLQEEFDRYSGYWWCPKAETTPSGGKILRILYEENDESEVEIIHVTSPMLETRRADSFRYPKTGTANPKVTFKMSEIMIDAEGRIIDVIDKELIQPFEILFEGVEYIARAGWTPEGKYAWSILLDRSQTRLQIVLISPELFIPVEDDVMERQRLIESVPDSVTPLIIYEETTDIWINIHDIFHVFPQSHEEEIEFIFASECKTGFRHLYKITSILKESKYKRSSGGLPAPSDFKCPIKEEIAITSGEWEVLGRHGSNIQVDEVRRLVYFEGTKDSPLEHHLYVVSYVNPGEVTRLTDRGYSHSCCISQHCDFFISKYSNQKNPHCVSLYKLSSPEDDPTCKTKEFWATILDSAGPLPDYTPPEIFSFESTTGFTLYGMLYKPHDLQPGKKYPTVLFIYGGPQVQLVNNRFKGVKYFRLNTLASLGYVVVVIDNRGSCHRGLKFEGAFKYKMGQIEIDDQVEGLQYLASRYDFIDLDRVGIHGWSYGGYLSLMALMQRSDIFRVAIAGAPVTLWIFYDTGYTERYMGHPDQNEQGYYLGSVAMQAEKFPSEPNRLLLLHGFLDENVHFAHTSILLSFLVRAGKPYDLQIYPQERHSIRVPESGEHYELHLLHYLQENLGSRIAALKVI

hDPP8 Activity at Compound Concentration 10 μM: Not Active
SMILES: Cc1ccc2c(C(=O)NCC(=O)N3[C@H](C#N)C[C@@H]4C[C@@H]43)ccnc2c1 [Example 20, N-(2-((1S,3S,5S)-3-Cyano-2-azabicyclo[3.1.0]hexan-2-yl)-2-oxoethyl)-7-methylquinoline-4-carboxamide]
